# Where a SMILES comes first, the peptide text is derived from it. The star is where a group is joined. Cbz = O=C(OCc1ccccc1)*
# Tested on: Stat-1-specific proteases in PBMC extracts
# Experiment: Effect of protease inhibitors on Stat-1 protein degradation in mixed PBMC extracts (Western blot)
# Type: biochemical, human
# Settings: healthy control PBMC extract mixed with CFS patient PBMC extract (RNase L ratio=3.0), 37 C, 15 minutes; inhibitor 50 micromolar final concentration; anti-Stat-1 Western blot (FIG. 4)
# Experimental: One of the two extracts used was from a healthy control (i.e., RNase L ratio<0.2; no protease present, detectable levels of Stat-1 protein). The other extract was from a patient with CFS (i.e., RNase L ratio>2.0; protease(s) present, no detectable level of Stat-1 protein).
# Sixty (60) micrograms of PBMC extract from the healthy control was mixed with 60 micrograms of PBMC extract from a CFS patient and incubated at 37 C for 15 minutes in the presence of a) buffer only, b) DMSO (solvent for the protease inhibitors), c) Calpastatine, 50 micromolar final concentration, d) Calpain Inhibitor Type I, 200 micromolar final concentration, e) Calpain Inhibitor Type II, 200 micromolar final concentration, f) Caspase 3 Inhibitor Type II, 5 micromolar final concentration, or g) Proteasome Inhibitor (MG 132), 50 micromolar final concentration. All protease inhibitors above, as well as DMSO, were from Sigma Chemical Company.
# After the 15 minute incubation, 2×SDS-PAGE gel sample dye was added and the sample heated to 95 C for five minutes to denature the proteins. The denatured samples were then subjected to standard SDS-PAGE using a 4 percent stacking gel and 10 percent separating gel. Transfer to PVDF membrane, Western blot with anti-Stat-1 antibody, and color development were performed exactly as described above.
smiles,measurement,value
CC(C)C[C@@H](C=O)NC(=O)[C@H](CC(C)C)NC(=O)[C@H](CC(C)C)NC(=O)OCc1ccccc1 [MG 132] (Cbz-Leu-Leu-Leu-aldehyde),degradation of Stat-1 protein,inhibited
